Data from ChEMBL document CHEMBL1146693, “Design and SAR of thienopyrimidine and thienopyridine inhibitors of VEGFR-2 kinase activity” (Bioorg Med Chem Lett, 2004).
pIC50: −log10 of the molar value. Values joined by “and” are separate entries in the source; they are usually repeats but may differ in a detail not shown here. Equal values may be shown once.

Target: Epidermal growth factor receptor (Homo sapiens, UniProt P00533)
Test: Inhibitory activity against epidermal growth factor receptor

Epidermal growth factor receptor, sequence (P00533 whole entry): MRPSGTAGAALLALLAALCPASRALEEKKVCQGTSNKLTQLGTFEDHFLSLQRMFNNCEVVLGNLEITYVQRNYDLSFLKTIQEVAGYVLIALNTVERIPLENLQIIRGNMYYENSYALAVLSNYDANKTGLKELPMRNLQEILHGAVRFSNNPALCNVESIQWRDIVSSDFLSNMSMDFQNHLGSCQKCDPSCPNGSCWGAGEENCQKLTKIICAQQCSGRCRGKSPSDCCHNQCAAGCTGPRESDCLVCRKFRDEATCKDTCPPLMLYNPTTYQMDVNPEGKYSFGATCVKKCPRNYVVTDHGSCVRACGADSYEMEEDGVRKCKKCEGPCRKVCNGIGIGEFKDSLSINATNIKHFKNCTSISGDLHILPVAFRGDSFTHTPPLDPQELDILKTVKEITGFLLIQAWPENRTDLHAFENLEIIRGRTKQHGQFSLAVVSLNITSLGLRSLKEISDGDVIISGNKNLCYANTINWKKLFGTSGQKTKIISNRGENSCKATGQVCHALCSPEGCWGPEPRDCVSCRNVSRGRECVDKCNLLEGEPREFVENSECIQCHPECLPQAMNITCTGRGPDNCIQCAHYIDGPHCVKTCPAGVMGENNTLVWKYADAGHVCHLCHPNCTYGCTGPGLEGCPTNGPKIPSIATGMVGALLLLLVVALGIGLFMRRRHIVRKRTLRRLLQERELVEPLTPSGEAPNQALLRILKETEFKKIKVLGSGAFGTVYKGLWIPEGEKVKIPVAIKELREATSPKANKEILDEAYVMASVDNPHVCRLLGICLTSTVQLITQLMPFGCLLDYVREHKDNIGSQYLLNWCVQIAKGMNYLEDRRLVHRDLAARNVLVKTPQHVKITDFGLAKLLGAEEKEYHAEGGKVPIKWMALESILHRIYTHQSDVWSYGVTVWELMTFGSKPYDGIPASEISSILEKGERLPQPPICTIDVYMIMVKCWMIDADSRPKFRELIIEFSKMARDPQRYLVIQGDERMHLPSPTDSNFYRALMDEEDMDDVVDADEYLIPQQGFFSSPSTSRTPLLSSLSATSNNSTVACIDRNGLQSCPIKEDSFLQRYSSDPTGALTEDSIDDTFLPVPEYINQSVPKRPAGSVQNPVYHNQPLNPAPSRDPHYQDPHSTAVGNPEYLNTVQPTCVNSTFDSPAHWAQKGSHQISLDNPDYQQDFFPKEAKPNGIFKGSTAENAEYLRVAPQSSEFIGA

For `CC(C)(CO)NCc1ccc(-c2cc3ncnc(Nc4ccc5[nH]ccc5c4)c3s2)cc1`, the pIC50 was 9.00 and 8.10.
In the case of `c1ccc(CCCN(c2cc3ncnc(Nc4ccc5[nH]ccc5c4)c3s2)n2ccnc2)cc1`, the pIC50 was 8.30 and 9.00.

Going from `OCCNCc1ccc(-c2cc3nccc(Nc4ccc5[nH]ccc5c4)c3s2)cc1` to `OCCCNCc1ccc(-c2cc3nccc(Nc4ccc5[nH]ccc5c4)c3s2)cc1`, the pIC50 falls from 8.70 to 8.05 (0.65 log units).

First: Cc1c[nH]c2ccc(Nc3ncnc4cc(-c5ccccc5)sc34)cc12
Second: Cc1cc2cc(Nc3ncnc4cc(-c5ccccc5)sc34)ccc2[nH]1
The pIC50 of the first is 1.30 log units higher: 8.30 for the first, 7.00 for the second.

Compared with `c1csc(-c2cc3nccc(Nc4ccc5[nH]ccc5c4)c3s2)c1`, `CN(CCO)Cc1ccc(-c2cc3nccc(Nc4ccc5[nH]ccc5c4)c3s2)cc1` is 0.48 log units lower in pIC50: 9.00 for the first, 8.52 for the second.

First: NC(=O)C1CCN(Cc2ccc(-c3cc4ncnc(Nc5ccc6[nH]ccc6c5)c4s3)cc2)CC1
Second: NC(=O)C1CCN(Cc2ccc(-c3cc4nccc(Nc5ccc6[nH]ccc6c5)c4s3)cc2)CC1
The pIC50 of the first is 0.85 log units lower: 8.15 for the first, 9.00 for the second.

First: Cc1cc2cc(Nc3ccnc4cc(-c5ccc(CN6CCOCC6)cc5)sc34)ccc2[nH]1
Second: c1cc(Nc2ccc3[nH]ccc3c2)c2sc(-c3ccc(CN4CCOCC4)cc3)cc2n1
The pIC50 of the first is 1.62 log units lower: 5.90 for the first, 7.52 for the second.

First: OCc1ccc(-c2cc3ncnc(Nc4ccc5[nH]ccc5c4)c3s2)cc1
Second: NCc1ccc(-c2cc3ncnc(Nc4ccc5[nH]ccc5c4)c3s2)cc1
The pIC50 of the first is 0.60 log units higher: 9.00 for the first, 8.40 for the second. The first is the more potent here.

First: CC(=O)NCCNCc1ccc(-c2cc3nccc(Nc4ccc5[nH]ccc5c4)c3s2)cc1
Second: CC(=O)NCCNCc1ccc(-c2cc3ncnc(Nc4ccc5[nH]ccc5c4)c3s2)cc1
The pIC50 of the first is 0.40 log units higher: 8.70 for the first, 8.30 for the second.

First: c1nc(Nc2ccc3[nH]ccc3c2)c2sccc2n1
Second: c1ccc(-c2cc3ncnc(Nc4ccc5[nH]ncc5c4)c3s2)cc1
The pIC50 of the first is 0.42 log units higher: 6.22 for the first, 5.80 for the second. The first is the more potent here.

`Cc1cc2cc(Nc3ccnc4cc(-c5ccc(CNCCOCCO)cc5)sc34)ccc2[nH]1` and `Cc1cc2cc(Nc3ccnc4cc(-c5ccc(CNCCO)cc5)sc34)ccc2[nH]1` are within 0.2 log units of each other in pIC50: 6.18 for the first, 6.00 for the second.

First: Cc1cc2cc(Nc3ccnc4cc(-c5ccc(CNCCCO)cc5)sc34)ccc2[nH]1
Second: Cc1cc2cc(Nc3ccnc4cc(-c5ccc(CN(C)CCO)cc5)sc34)ccc2[nH]1
The pIC50 of the first is 0.55 log units lower: 6.30 for the first, 6.85 for the second. The second is the more potent here.

First: c1ccc(NCCN(c2cc3ncnc(Nc4ccc5[nH]ccc5c4)c3s2)n2cccc2)cc1
Second: NC(=O)c1ccc(Nc2ncnc3cc(-c4ccccc4)sc23)cc1
The pIC50 of the first is higher: 9.00 for the first, under 6.00 for the second.

Compound `c1cc(Nc2ccc3[nH]ccc3c2)c2sc(-c3ccc(CNCCN4CCNCC4)cc3)cc2n1` has a pIC50 of 8.52.
